Tested on: NCI60 cell lines
Details: not told
Experimental: Compounds are tested according to a standard protocol (dtp.nci.nih.gov/branches/btb/ivclsp.html, reproduced as Appendix B), and GI50 data (i.e., data indicating the concentration of a compound that inhibits growth of a particular cell line by 50% after 48 hours of exposure) for many compounds, including a set of 171 so-called Standard Agents (dtp.nci.nih.gov/docs/cancer/searches/standard_agent.html, reproduced as Appendix C) are made publicly available.
Inventive biomarker:compound correlations are established by comparing the expression/activity expression and compound toxicity datasets. […] Such comparisons can quantify the association between the variables, e.g., using a Pearson or Spearman correlation. […] For example, to aid in the identification of non-linear relationships between compound toxicity and presence of a biomarker (e.g., a threshold response), values above or below a certain limit may be given a common value, or weighted, before the comparison is measured.
The present inventors established a gene expression profile for each of the 59 publicly-available NCI60 cell lines. […] Specifically, cDNAs that were detectable in fewer than 80% of the cell lines were discarded; approximately 17,000 unique genes were left whose measurements were recorded. […]

## CC(=O)O[C@H]1C(=O)[C@@]2(C)[C@H]([C@H](OC(=O)c3ccccc3)[C@]3(O)C[C@H](OC(=O)[C@H](O)[C@@H](NC(=O)c4ccccc4)c4ccccc4)C(C)=C1C3(C)C)[C@]1(OC(C)=O)CO[C@@H]1C[C@@H]2O [Paclitaxol]
  correlation of toxicity pattern with ABCB1 (PGP) gene expression: highest negative correlation

Source: US20050227266A1, “Biomarker:compound correlations in cancer diagnosis and therapy” (priority 2004, published 2005)
